# In patent US20250057913A1, “USE OF SOMATOSTATIN AGONIST IN THE TREATMENT OF SSTR3 EXPRESSING TUMORS” (ITALFARMACO SPA, priority 2021, published 2025):
# Legend:
# SSTR3 [1] = target: T1, SSTR3 (Homo sapiens, UniProt P32745); assay: SSTR3 internalization in transfected HEK293 cells (confocal microscopy); format: cell-based; parameters: expressed in transfected cells; details: HEK293, 1 μM or 10 μM, 30 min
# Text: Cells were then fixed, stained with the anti-HA antibody and examined by confocal microscopy. Shown are representative images from one of at least three independent experiments performed in duplicate.
# HEK293 cells transfected with human SSTRs, and U20S cells transfected with human GFP-tagged receptors (SSTR2-tGFP, SSTR3-tGFP, SSTR5-tGFP). SST14 and SST28 were included as reference compounds in the first and second experiments, respectively.
# SSTR3 [2] = target: T1, SSTR3; assay: SSTR3 phosphorylation in HEK293 transfected cells (phosphosite-specific antibodies); format: cell-based; parameters: expressed in transfected cells; details: 10^−12 to 10^−5 M, 10 min at 37° C.
# Description: The levels of phosphorylated SST3 receptor were then determined using the phosphosite-specific anti-pS337/pT341 or anti-pT348.
# Finally, the SSTR5 pT333 phosphosite was only partially affected by all tested compounds, with Pasireotide showing the most pronounced effect (FIG. 9B, C).
# SSTR5 = SSTR5 (Homo sapiens, UniProt P35346); assay: SSTR binding affinity (Table 1)
# Chain of SSTR5 (P35346 whole entry): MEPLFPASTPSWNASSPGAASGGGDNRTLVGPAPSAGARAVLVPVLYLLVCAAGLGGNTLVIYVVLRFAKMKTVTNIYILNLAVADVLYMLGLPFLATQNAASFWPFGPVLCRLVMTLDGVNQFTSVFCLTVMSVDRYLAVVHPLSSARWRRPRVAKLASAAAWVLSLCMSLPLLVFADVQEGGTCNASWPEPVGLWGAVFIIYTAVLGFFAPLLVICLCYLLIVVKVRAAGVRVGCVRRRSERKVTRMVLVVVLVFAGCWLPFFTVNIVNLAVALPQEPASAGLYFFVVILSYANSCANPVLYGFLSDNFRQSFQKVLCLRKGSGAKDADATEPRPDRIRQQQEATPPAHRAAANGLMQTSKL
# Text: (§1) IC50 values are from one representative experiment. Confidence interval from 3 independent experiments (Table 1).
# SSTR1 = SSTR1 (Homo sapiens, UniProt P30872); assay: SSTR binding affinity (Table 1)
# Chain of SSTR1 (P30872 whole entry): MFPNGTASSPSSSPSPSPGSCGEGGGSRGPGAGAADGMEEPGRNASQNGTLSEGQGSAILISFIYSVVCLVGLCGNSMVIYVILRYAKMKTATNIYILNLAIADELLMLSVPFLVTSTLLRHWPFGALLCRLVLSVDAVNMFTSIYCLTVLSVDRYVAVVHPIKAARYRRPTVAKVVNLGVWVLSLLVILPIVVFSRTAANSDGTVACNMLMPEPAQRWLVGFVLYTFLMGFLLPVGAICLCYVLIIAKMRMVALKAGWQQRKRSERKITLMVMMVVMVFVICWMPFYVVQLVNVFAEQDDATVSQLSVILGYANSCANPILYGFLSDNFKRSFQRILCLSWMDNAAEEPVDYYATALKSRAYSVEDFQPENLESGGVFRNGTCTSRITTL
# Text: as §1
# SSTR3-tGFP = SSTR3-tGFP (Homo sapiens, UniProt P32745); assay: Internalization of SSTR3 in U2OS transfected cells; format: cell-based; parameters: expressed in transfected cells; host or cells: U2OS
# Chain of SSTR3-tGFP (P32745 whole entry): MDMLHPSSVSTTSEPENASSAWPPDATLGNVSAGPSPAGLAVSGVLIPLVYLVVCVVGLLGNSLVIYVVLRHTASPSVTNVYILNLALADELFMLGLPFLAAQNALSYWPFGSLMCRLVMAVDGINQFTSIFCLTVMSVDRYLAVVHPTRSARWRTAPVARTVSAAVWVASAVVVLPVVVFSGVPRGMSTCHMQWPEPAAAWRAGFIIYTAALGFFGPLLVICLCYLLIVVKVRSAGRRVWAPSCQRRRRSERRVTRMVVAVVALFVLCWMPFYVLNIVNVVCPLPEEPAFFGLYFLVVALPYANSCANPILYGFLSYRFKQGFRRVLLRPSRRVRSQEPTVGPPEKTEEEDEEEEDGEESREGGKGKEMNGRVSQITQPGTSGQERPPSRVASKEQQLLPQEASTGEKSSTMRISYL
# Text: HEK293 cells transfected with human SSTRs, and U20S cells transfected with human GFP-tagged receptors (SSTR2-tGFP, SSTR3-tGFP, SSTR5-tGFP).
# [3] = test system: primary cultures of rat anterior pituitary cells; assay: Inhibition of GHRH-stimulated GH release in vitro; format: cell-based; details: rat anterior pituitary primary cell cultures
# Text: FIG. 4. Inhibition of GHRH-stimulated GH release in vitro using primary cultures of rat anterior pituitary cells.
# Results are expressed as mean values±SD of 3 experiments.
# [4] = test system: pentobarbital-induced GH release; assay: pentobarbital-induced GH release in rats; format: in vivo, rat
# T1 sequence (P32745 whole entry): as above
compound,measurement,setting,value
"COc1cc2cccc(OC)c2cc1C[C@H]1NC(=O)[C@H](Cc2ccc(O)cc2)NC(=O)[C@@H]2C[C@@H](OC(=O)NCCN)CN2C(=O)[C@H](Cc2ccccc2)NC(=O)[C@H](Cc2ccc(OCc3ccccc3)cc2)NC(=O)[C@H](CCCCN)NC1=O [ITF2984, (3S,6R,9S,12S,15S,19R,20aS)-9-(4-aminobutyl)-15-benzyl-12-(4-(benzyloxy)benzyl)-6-((3,8-dimethoxynaphthalen-2-yl)methyl)-3-(4-hydroxybenzyl)-1,4,7,10,13,16-hexaoxoicosahydropyrrolo[1,2-a][1,4,7,10,13,16]hexaazacyclooctadecin-19-yl (2-aminoethyl)carbamate]",internalization of SSTR3,SSTR3 [1],strong internalization
same,"phosphorylation of SSTR3 (pS337/pT341, pT348)",SSTR3 [2],full phosphorylation
same,IC50,SSTR5,nanomolar range
same,affinity compared to octreotide,SSTR5; compared to octreotide,higher affinity
same,affinity compared to octreotide,SSTR1,higher affinity
same,"Mean of internalized fluorescence, SSTR3",SSTR3-tGFP; 1 μM,61.1 AU
same,rank as SSTR3-tGFP internalization inducer,SSTR3-tGFP; 1 μM,most potent inducer of receptor internalization
same,"Mean of internalized fluorescence, SSTR3",SSTR3-tGFP; 10 μM,62.5 AU
same,inhibition of GH release,[3],potently inhibited GH release
same,pentobarbital-induced GH release,[4],inhibited pentobarbital-induced GH release
